Each structure is given as a SMILES string.

Series [1] has as its system HepG-2 cells. Briefly: Annexin V-FITC apoptosis assay. Format: cell-based, human. The note with it: HepG-2, 5a at 2.5 μM for 24 h. The method, then: To further confirm Apoptotic effect of compound 5a in HepG-2 cells, Annexin V and PI double staining assay was performed.[55] In this test, HepG-2 cells were incubated with compound 5a at concentration of 2.5 μM for 24 h.
The effect of the most cytotoxic compound 5a on apoptosis induction was analyzed using Annexin V-FITC/PI apoptosis detection kit. In this test, HepG-2 cells were stained with Annexin V fluorescein isothiocyanate (FITC) and counterstained with propidium iodide (PI). Then, HepG-2 cells in a density of 2 × 10^5 per well were incubated with compound 5a for […]. Next, the cells were trypsinized, washed with phosphate-buffered saline (PBS), and stained for 15 min at 37 °C in the dark. Finally, FACS Caliber flow cytometer was used in analysis process.[55]

The test system of a further series is HepG-2. Briefly: In vitro anti-proliferative activity, MTT assay, HepG-2. It is filed as cell-based, human. As to conditions: for IC50: Homo sapiens, HepG2, MTT, 24 h treatment, mean ± S.D. of three separate experiments. The method, then: (§1) The cells were obtained from ATCC (American Type Culture Collection) via the Holding company for biological products and vaccines (VACSERA) (Cairo, Egypt). […] After incubation period, the cell lines were treated with different concentration of the synthesized compounds and incubated for 24 h. After treatment by 24 h, 20 μL of MTT solution (5 mg mL^−1) was added and incubated for 4 h. Dimethyl sulfoxide (100 μL) was added into each well to dissolve the formed purple formazan. […] The relative cell viability in percentage was calculated as (A570 of treated samples/A570 of untreated sample) X 100.

Another series concerns MCF-7. Briefly: In vitro anti-proliferative activity, MTT assay, MCF-7. Format: cell-based, human. As to conditions: for IC50: Homo sapiens, MCF7, MTT, 24 h treatment, mean ± S.D. of three separate experiments. The method, then:
as §1
(Formazan colour is commonly taken as a measure of viable cells.)

A further series addresses T1, purified bovine tubulin (Bos taurus, UniProt P81947+Q6B856).
T1 construct: purified bovine tubulin (10 μM); from tissue; host or cells: bovine
Briefly: In vitro tubulin polymerization assay. Format: biochemical. As to conditions: purified bovine tubulin 10 μM, 37 °C; read-out: IC50 Tubulin polymerization inhibition. The method, then:
The inhibition assay on microtubule polymerization was evaluated turbidimetrically using a fluorescent plate reader.[52]

Another series concerns HCT-116. Kind of series: In vitro anti-proliferative activity, MTT assay, HCT-116. Format: cell-based, human. As to conditions: for IC50: Homo sapiens, HCT-116, MTT, 24 h treatment, mean ± S.D. of three separate experiments. The procedure:
as §1

Series [2] relates to HepG-2 cells. Kind of series: Cell cycle analysis (PI staining, flow cytometry). It is filed as cell-based, human. The procedure: To gain a better insight into the impact of compound 5a on cancer cell growth inhibition, its impact on cell cycle distribution and apoptosis induction was assessed using HepG-2 cells according to the method outlined by Wang et al.[53] In fact, anticancer agents hinder cancer cell growth and multiplication by arresting cell division at distinct checkpoints, and that cells resist apoptosis are highly resistant to cancer treatment.[54]
HepG-2 cells were seeded at density of 2 × 10^5 cells per well and incubated for 24 h in six-well plates. Fetal bovine serum (FBS, 10%) was added, after that cells were incubated at 37 °C and 5% CO2. The medium was replaced with (DMSO 1% v/v) containing the 2.5 μM of compound 5a, then incubated for 48 h, washed with cold phosphate buffered saline (PBS), fixed with 70% ethanol, rinsed with PBS then stained with the DNA fluorochrome PI, kept for 15 min at 37 °C. Then samples were analyzed with a FACS Caliber flow cytometer.[53]

T1 sequence (Q6B856 whole entry): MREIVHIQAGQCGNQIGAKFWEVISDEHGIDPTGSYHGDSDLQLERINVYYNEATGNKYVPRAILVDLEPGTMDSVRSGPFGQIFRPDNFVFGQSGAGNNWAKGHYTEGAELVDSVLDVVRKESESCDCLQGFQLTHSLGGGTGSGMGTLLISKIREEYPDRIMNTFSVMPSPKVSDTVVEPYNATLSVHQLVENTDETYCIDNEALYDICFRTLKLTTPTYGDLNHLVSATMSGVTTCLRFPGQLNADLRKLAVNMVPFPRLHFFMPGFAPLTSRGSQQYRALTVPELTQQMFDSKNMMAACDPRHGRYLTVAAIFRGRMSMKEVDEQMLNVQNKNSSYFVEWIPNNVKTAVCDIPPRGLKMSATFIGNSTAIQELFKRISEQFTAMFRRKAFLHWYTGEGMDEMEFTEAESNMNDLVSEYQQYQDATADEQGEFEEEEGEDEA
T1 sequence (P81947 whole entry): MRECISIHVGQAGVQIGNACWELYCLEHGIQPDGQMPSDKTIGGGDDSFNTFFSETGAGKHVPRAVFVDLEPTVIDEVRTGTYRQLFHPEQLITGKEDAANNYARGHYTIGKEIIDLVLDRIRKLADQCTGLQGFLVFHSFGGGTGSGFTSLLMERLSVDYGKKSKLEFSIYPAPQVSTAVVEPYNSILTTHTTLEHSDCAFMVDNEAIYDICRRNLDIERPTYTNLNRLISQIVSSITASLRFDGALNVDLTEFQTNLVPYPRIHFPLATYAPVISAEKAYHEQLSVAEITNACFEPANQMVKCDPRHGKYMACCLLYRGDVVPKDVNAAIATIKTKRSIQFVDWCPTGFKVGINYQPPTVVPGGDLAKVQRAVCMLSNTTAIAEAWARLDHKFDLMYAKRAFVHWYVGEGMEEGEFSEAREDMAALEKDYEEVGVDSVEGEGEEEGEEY

Consider `C/C(=N\NC1=N/C(=C/c2cccs2)C(=O)S1)c1ccc(C)cc1` [Compound 5a, (E)-4-(Thiophen-2-ylmethylene)-2-(2-((E)-1-(p-tolyl)ethylidene)hydrazinyl) thiazol-5(4H)-one], for which the melting point was 202 to 204 °C. This compound showed a Necrosis in the series with HepG-2 cells [1] (control 0.48) of 1.54%. Moreover, the “Apoptosis Late” value in the series on HepG-2 cells [1] (control 0.64) is 5.54%. For the same compound, the “Apoptosis Early” value with HepG-2 cells [1] (control 1.02) was 8.25%. In addition, the “Apoptosis Total” value in the series with HepG-2 cells [1] (control 2.14) turned out to be 15.33%. Also, the IC50 in the series on HepG-2 is 3.34 ± 0.1 µM. For the same compound, in the series with HepG-2 (ratio of IC50 values), the “times as active as colchicine against HepG-2” value amounted to 2.23 times. The compound also displayed an IC50 in the series on MCF-7 of 4.51 ± 0.6 µM. For the same compound, in the series with MCF-7 (ratio of IC50 values), the “times as active as colchicine against MCF-7” value is 2.32 times. Also, the IC50 at purified bovine tubulin was found to be 0.00952 ± 0.0003 µM. Also, half-maximal inhibition with HCT-116 (IC50) required 6.41 ± 0.1 µM. In the series with HCT-116 (ratio of IC50 values), the “times as active as colchicine against HCT-116” value is 1.45 times. In the series with HepG-2 cells [2] (HepG-2, 5a at 2.5 μM for 48 h, control 2.14), the “Cell cycle distribution % Pre-G1” value stood at 15.33%. Moreover, in the series with HepG-2 cells [2] (HepG-2, 5a at 2.5 μM for 48 h, control 5.09), the “Cell cycle distribution % G2-M” value is 20.55%. Besides, in the series on HepG-2 cells [2] (HepG-2, 5a at 2.5 μM for 48 h, control 38.15), the “Cell cycle distribution % S” value amounted to 39.28%. Moreover, the “Cell cycle distribution % G0-G1” value in the series with HepG-2 cells [2] (HepG-2, 5a at 2.5 μM for 48 h, control 56.76) is given as 40.17%. In addition, the “effect on cell cycle” value in the series on HepG-2 cells [2] (HepG-2 cells) is “cell arrest at G2/M phase”.
Take `C/C(=N\NC1=N/C(=C/c2ccc(O)cc2O)C(=O)S1)c1cccs1` [Compound 8f, 4-((E)-2,4-Dihydroxybenzylidene)-2-(2-((E)-1-(thiophen-2-yl)ethylidene) hydrazinyl) thiazol-5(4H)-one]: the melting point was more than 300 °C. In the series with HepG-2, this compound registered an IC50 of 3.23 ± 0.1 µM. Besides, the concentration for half-maximal inhibition (IC50) in the series on MCF-7 is 7.65 ± 0.2 µM. The IC50 at purified bovine tubulin was 0.0116 ± 0.0002 µM. The compound further registered an IC50 in the series with HCT-116 of 8.96 ± 0.2 µM.
In turn, `COc1ccc(/C=C2/N=C(N/N=C(\C)c3ccco3)SC2=O)cc1` [Compound 8g, 2-(2-((E)-1-(Furan-2-yl)ethylidene)hydrazinyl)-4-((E)-4-methoxybenzylid-ene)thiazol-5(4H)-one] had a melting point of 288 to 290 °C. For the same compound, in the series with HepG-2, the IC50 was determined as 4.69 ± 0.1 µM. In addition, in the series with MCF-7, the IC50 stood at 9.29 ± 0.1 µM. Moreover, the IC50 at purified bovine tubulin is 0.0142 ± 0.0003 µM. Also, the IC50 with HCT-116 turned out to be 6.59 ± 0.1 µM.
In the case of `C/C(=N\NC1=N/C(=C/c2ccc(Cl)cc2)C(=O)S1)c1ccco1` [Compound 8h, 4-((E)-4-Chlorobenzylidene)-2-(2-((E)-1-(furan-2-yl)ethylidene)hydra-zinyl)thiazol-5(4H)-one], the melting point was in the range of 272 to 274 °C. In the series with HepG-2, 10.3 ± 0.6 µM corresponded to half-maximal inhibition (IC50). The IC50 with MCF-7 came to 20 ± 0.4 µM. Further, the IC50 on purified bovine tubulin worked out at 0.0384 ± 0.0014 µM. In the series on HCT-116, this compound showed an IC50 of 12 ± 0.3 µM.
Compound `C/C(=N\NC1=N/C(=C/c2ccc(O)cc2)C(=O)S1)c1ccco1` [Compound 8i, 2-(2-((E)-1-(Furan-2-yl)ethylidene)hydrazinyl)-4-((E)-4-hydroxybenzylid-ene)thiazol-5(4H)-one] registered a melting point of 293 to 295 °C. Besides, the IC50 with HepG-2 was found to be 12.5 ± 0.2 µM. For the same compound, inhibition in the series with MCF-7 was half-maximal at 22.7 ± 0.7 µM (IC50). Further, the 50% inhibitory concentration (IC50) at purified bovine tubulin is 0.0478 ± 0.0021 µM. In the series on HCT-116, this compound yielded an IC50 of 15.6 ± 0.4 µM.
On to `COc1ccc(/C=C2/N=C(N/N=C(\C)c3ccco3)SC2=O)cc1OC` [Compound 8k, 4-((E)-3,4-Dimethoxybenzylidene)-2-(2-((E)-1-(furan-2-yl)ethylidene)hydra-zinyl)thiazol-5(4H)-one], for which the melting point is 240 to 242 °C. In addition, the IC50 with HepG-2 came out at 4.58 ± 0.1 µM. This compound also came in with an IC50 in the series on MCF-7 of 9.15 ± 0.2 µM. Further, on purified bovine tubulin, the IC50 was 0.0135 ± 0.0008 µM. This compound registered an IC50 in the series on HCT-116 of 5.55 ± 0.1 µM.
The compound `C/C(=N\NC1=N/C(=C/c2ccc(O)cc2O)C(=O)S1)c1ccco1` [Compound 8l, 4-((E)-2,4-Dihydroxybenzylidene)-2-(2-((E)-1-(furan-2-yl)ethylidene) hydrazinyl) thiazol-5(4H)-one] gave a melting point of 282 to 284 °C. Also, the midpoint of inhibition in the series on HepG-2, the IC50, lay at 3.73 ± 0.1 µM. In the series on MCF-7, inhibition was half-maximal at 7.89 ± 0.5 µM (IC50). For the same compound, the IC50 on purified bovine tubulin was 0.0132 ± 0.0009 µM. This compound returned a concentration for half-maximal inhibition (IC50) with HCT-116 of 10.28 ± 0.1 µM.
`C/C(=N\NC1=N/C(=C/c2cccs2)C(=O)S1)c1cccs1` [Compound 9a, (E)-2-(2-((E)-1-(Thiophen-2-yl)ethylidene)hydrazinyl)-4-(thiophen-2-ylmethylene)thiazol-5(4H)-one] showed a melting point of 214 to 216 °C. In addition, the IC50 in the series on HepG-2 is 21.9 ± 0.9 µM. In the series on MCF-7, this compound registered an IC50 of 33.6 ± 0.9 µM. Moreover, the IC50 on purified bovine tubulin is 0.0391 ± 0.001 µM. The same compound came in with an IC50 in the series with HCT-116 of 24.2 ± 0.7 µM.

As a reminder, the IC50 is the point on the concentration scale where inhibition reaches its midpoint. In general, melting point refers to the temperature of the solid-liquid transition.

These data come from paper PMC9048505 (RSC Advances, 2020).
